Measured values from patent US20240000698A1, “COMPOSITION COMPRISING FERMENTED EXTRACT FROM PINE FOR PREVENTING SKIN WRINKLE, IMPROVING SKIN BARRIER FUNCTION, PREVENTING HAIR LOSS, PROMOTING HAIR GROWTH AND IMPROVING HAIR HEALTH AND METHOD FOR MANUFACTURING THE SAME” (TaedamBio Co., Ltd., priority 2022, published 2024).

Test: DPPH free radical scavenging activity measurement test
Format: biochemical
Description: The free radical scavenging activity measurement test was conducted using 2,2-diphenyl-1-picrylhydrazyl (DPPH) to evaluate the free radical scavenging activity contained in active oxygen, which is one of the antioxidant effects on the fermented pine tree extract obtained by the above method (testing institution: Korea Testing and Research Institute, test number: TNK-2022-000242). The fermented pine extract was prepared at 5, 10, 20, and 30% concentrations using ethanol, and as a positive control material, L-Ascorbic acid was weighed, and was prepared at concentrations of 0.0005, 0.001, 0.0015, and 0.002% using distilled water. Ethanol was used to prepare DPPH at concentrations of 0.2 mM. 100 μL of the preparations for each concentration were dispensed into a 96-well plate, 0.2 mM DPPH and 100 μL of Ethanol were added, and reacted at room temperature for 30 minutes in a light-shielding state, and then absorbance was measured at 517 nm wavelength. The DPPH free radical scavenging activity (%) was calculated using the following formula. Each experimental result was measured three times to calculate the mean and standard deviation, and the confidence interval was set at 95%. [formula] [formula]

For `O=C1O[C@H]([C@@H](O)CO)C(O)=C1O` [positive control substance, L-Ascorbic acid], the “IC50 (concentration representing 50% activity)” value (DPPH free radical scavenging) was 0.0013%, the “DPPH free radical scavenging activity” value (positive control 0.0015% in distilled water) was 57.25% and the “DPPH free radical scavenging activity” value (positive control 0.002% in distilled water) was 77.39%.
